One molecule from BindingDB's records for patent US12240838 (Biogen Ma, 2025) can be followed below.

One may read the IC50 as the concentration needed to halve the response being measured. A high value points to weaker potency in that assay.

The target of this experiment is Tyrosine-protein kinase BTK (Homo sapiens, UniProt Q06187). Description: In Vitro BTK Kinase Assay. The procedure:
The purpose of the BTK in vitro assay is to determine compound potency against BTK through the measurement of IC50. […] For a typical assay, a 24 μL aliquot of a ATP/peptide master mix (final concentration; ATP 10 μM, polyGAT 100 nM) in kinase buffer (10 mM Tris-HCl pH 7.5, 10 mM MgCl2, 200 μM Na3PO4, 5 mM DTT, 0.01% Triton X-100, and 0.2 mg/ml casein) is added to each well. […] The assay is incubated for 30 minutes before being stopped with […] of a 50 mM EDTA solution. […] The plate is covered and incubated for 45 minutes at room temperature.

Tyrosine-protein kinase BTK, sequence (Q06187 whole entry): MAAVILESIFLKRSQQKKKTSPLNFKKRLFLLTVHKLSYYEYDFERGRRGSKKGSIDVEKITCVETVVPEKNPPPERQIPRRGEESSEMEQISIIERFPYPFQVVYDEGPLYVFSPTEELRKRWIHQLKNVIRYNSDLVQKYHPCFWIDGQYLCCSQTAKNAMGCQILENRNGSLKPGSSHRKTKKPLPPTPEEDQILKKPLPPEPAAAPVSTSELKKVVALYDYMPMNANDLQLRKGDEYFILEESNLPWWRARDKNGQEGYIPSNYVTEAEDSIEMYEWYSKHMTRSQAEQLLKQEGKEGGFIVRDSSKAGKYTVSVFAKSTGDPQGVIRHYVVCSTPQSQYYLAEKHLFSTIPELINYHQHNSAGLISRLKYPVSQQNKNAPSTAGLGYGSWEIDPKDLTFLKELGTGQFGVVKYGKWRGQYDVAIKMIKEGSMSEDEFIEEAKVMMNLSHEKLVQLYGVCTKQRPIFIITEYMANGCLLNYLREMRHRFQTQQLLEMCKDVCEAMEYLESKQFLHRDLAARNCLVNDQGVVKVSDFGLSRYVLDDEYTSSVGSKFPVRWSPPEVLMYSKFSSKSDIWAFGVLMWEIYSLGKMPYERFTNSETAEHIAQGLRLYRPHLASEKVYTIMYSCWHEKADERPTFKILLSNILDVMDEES

With `CC(C)(C)c1nc(C(=O)NCc2cc(F)c(-c3ccnc(NC(=O)C4CC4)c3)cc2C(F)(F)F)no1` [US12240838, Compound 62], the IC50 was < 1 nM.
